Results on 21 compounds are retold here after US20070021435A1, “AMINOPYRIMIDINES AS KINASE MODULATORS” (priority 2005, published 2007).

SMILES strings stand for the structures.

T2 sequence (Q16620 526-822 limits assumed): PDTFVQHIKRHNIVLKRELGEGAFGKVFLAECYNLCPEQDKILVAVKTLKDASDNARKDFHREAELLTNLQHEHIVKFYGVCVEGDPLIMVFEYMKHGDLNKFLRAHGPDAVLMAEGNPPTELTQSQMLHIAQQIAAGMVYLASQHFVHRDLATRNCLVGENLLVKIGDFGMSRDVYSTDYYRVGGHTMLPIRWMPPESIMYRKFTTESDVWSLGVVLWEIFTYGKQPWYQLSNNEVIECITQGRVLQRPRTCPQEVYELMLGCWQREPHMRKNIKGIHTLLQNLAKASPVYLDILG

The target of one assay is T1, isolated kinase domain of the human c-kit receptor (Homo sapiens, UniProt P10721).
T1 construct: isolated kinase domain of the human c-kit receptor; purchased ProQinase lot SP005
T1 sequence (P10721 589-937 limits assumed): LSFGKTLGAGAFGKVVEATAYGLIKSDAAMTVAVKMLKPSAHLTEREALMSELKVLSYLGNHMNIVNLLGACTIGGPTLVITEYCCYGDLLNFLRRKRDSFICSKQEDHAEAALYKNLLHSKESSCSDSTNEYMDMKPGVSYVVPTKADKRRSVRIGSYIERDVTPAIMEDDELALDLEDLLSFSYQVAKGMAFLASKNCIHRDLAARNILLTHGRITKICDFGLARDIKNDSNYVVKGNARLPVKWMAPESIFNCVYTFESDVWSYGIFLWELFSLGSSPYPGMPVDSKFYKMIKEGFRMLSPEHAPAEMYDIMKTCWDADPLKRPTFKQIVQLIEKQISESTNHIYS
Kind of assay: c-Kit fluorescence polarization kinase assay. It counts as biochemical. The note with it: 1 nM c-kit, 50 uM ATP, 45 minutes; uncertainty ±10%. As for the experimental part: The compounds of the present invention are also specific inhibitors of c-Kit. Selection of preferred compounds of Formula I for use as c-Kit inhibitors was performed in the following manner using an in vitro kinase assay to measure inhibition of the isolated kinase domain of the human c-kit receptor in a fluorescence polarization (FP) protocol. The c-kit assay utilized the fluorescein-labeled phosphopeptide and the anti-phosphotyrosine antibody included in the Panvera Phospho-Tyrosine Kinase Kit (Green) supplied by Invitrogen. When c-kit phosphorylated the poly Glu4Tyr, the fluorescein-labeled phosphopeptide was displaced from the anti-phosphotyrosine antibody by the phosphorylated poly Glu4Tyr, thus decreasing the FP value. The c-kit kinase reaction was incubated at room temperature for 45 minutes under the following conditions: 1 nM c-kit (ProQinase, lot SP005), 100 ug/mL poly Glu4Tyr, 50 uM ATP, 5 mM MgCl2, 1 mM DTT, 0.01% Tween-20, 1% DMSO or compound in […], pH 7.5. The kinase reaction was stopped with the addition of EDTA. The fluorescein-labeled phosphopeptide and the anti-phosphotyrosine antibody were added and incubated for 30 minutes at room temperature and fluorescence polarization was read. Data points were an average of triplicate samples.
One may read the IC50 as the concentration that inhibits the measured activity by half. High values mean lower potency, low ones higher potency. Consider `CCO/N=C/c1c(N)ncnc1N1CCN(C(=O)Nc2ccc(N3CCCCC3)cc2)CC1` [Example 11, 4-[6-Amino-5-(ethoxyimino-methyl)-pyrimidin-4-yl]-piperazine-1-carboxylic acid (4-piperidin-1-yl-phenyl)-amide], for which the IC50 was 0.0051 µM.

`CC(C)Oc1ccc(NC(=O)N2CCN(c3ncnc(N)c3/C=N/OCCN3CCOCC3)CC2)cc1` [Example 2, 4-{6-Amino-5-[(2-morpholin-4-yl-ethoxyimino)-methyl]-pyrimidin-4-yl}-piperazine-1-carboxylic acid (4-isopropoxy-phenyl)-amide] displayed an IC50 of 0.026 µM. This IC50 lies about 5.1-fold higher than the previous one.

`CO/N=C/c1c(N)ncnc1N1CCN(C(=O)Nc2ccc(OC(C)C)cc2)CC1` [Example 1, 4-[6-Amino-5-(methoxyimino-methyl)-pyrimidin-4-yl]-piperazine-1-carboxylic acid (4-isopropoxy-phenyl)-amide] gave an IC50 of 0.0105 µM.

A further assay has as its target T2, TrkB (Homo sapiens, UniProt Q16620).
T2 construct: purchased Upstate 14-507M
Nature of the assay: TrkB fluorescence polarization kinase assay. It counts as biochemical. Conditions: 50 nM TrkB, 150 uM ATP, 30 minutes; uncertainty ±10%. As for the experimental part: The compounds of the present invention are also specific inhibitors of TrkB. Selection of preferred compounds of Formula I for use as TrkB inhibitors was performed in the following manner. The TrkB assay utilized the fluorescein-labeled phosphopeptide and the anti-phosphotyrosine antibody included in the Panvera Phospho-Tyrosine Kinase Kit (Green) supplied by Invitrogen. When TrkB phosphorylated poly Glu4Tyr, the fluorescein-labeled phosphopeptide was displaced from the anti-phosphotyrosine antibody by the phosphorylated poly Glu4Tyr, thus decreasing the FP value. The TrkB kinase reaction was incubated at room temperature for 30 minutes under the following conditions: 50 nM TrkB (Upstate, catalog # 14-507M), 20 ug/mL poly Glu4Tyr, 150 uM ATP, 5 mM MgCl2, 1% compound in DMSO. The kinase reaction was stopped with the addition of EDTA. The fluorescein-labeled phosphopeptide and the anti-phosphotyrosine antibody were added and incubated for 30 minutes at room temperature. Data points were an average of triplicate samples.
On the technique in general: In fluorescence polarisation assays a small probe gives low polarisation when free and higher when bound to something large.
With `CC(C)Oc1ccc(NC(=O)N2CCN(c3ncnc(N)c3/C=N/OCC(=O)N3CCOCC3)CC2)cc1` [Example 16, 4-{6-Amino-5-[(2-morpholin-4-yl-2-oxo-ethoxyimino)-methyl]-pyrimidin-4-yl}-piperazine-1-carboxylic acid (4-isopropoxy-phenyl)-amide], the IC50 is 11.1 µM. In other words, the double-digit micromolar range.

Take `CO/N=C/c1c(N)ncnc1N1CCN(C(=O)Nc2ccc(Oc3ccccc3)cc2)CC1` [Example 21, 4-[6-Amino-5-(methoxyimino-methyl)-pyrimidin-4-yl]-piperazine-1-carboxylic acid (4-phenoxy-phenyl)-amide]: the IC50 is 7.4 µM.

In the case of `CO/N=C/c1c(N)ncnc1N1CCN(C(=O)Nc2ccc(OC3CCCC3)nc2)CC1` [Example 17, 4-[6-Amino-5-(methoxyimino-methyl)-pyrimidin-4-yl]-piperazine-1-carboxylic acid (6-cyclopentyloxy-pyridin-3-yl)-amide], the IC50 turned out to be 0.8 µM. This IC50 lies about 9.2-fold lower than the previous one.

In the case of `CCO/N=C/c1c(N)ncnc1N1CCN(C(=O)Nc2ccc(N3CCCCC3)cc2)CC1` [Example 11, 4-[6-Amino-5-(ethoxyimino-methyl)-pyrimidin-4-yl]-piperazine-1-carboxylic acid (4-piperidin-1-yl-phenyl)-amide], the IC50 was found to be 2.6 µM.

`CC(C)Oc1ccc(NC(=O)N2CCN(c3ncnc(N)c3/C=N/OCCN3CCOCC3)CC2)cc1` [Example 2, 4-{6-Amino-5-[(2-morpholin-4-yl-ethoxyimino)-methyl]-pyrimidin-4-yl}-piperazine-1-carboxylic acid (4-isopropoxy-phenyl)-amide] displayed an IC50 of 10.1 µM.

`CCO/N=C\c1c(N)ncnc1N1CCN(C(=O)Nc2ccc(OC(C)C)cc2)CC1` [Example 10, 4-[6-Amino-5-(ethoxyimino-methyl)-pyrimidin-4-yl]-piperazine-1-carboxylic acid (4-isopropoxy-phenyl)-amide (syn-configuration for —C═N—O—)] showed an IC50 of 11 µM.

Consider `CO/N=C/c1c(N)ncnc1N1CCN(C(=O)Nc2ccc(OC3CCC3)nc2)CC1` [Example 6, 4-[6-Amino-5-(methoxyimino-methyl)-pyrimidin-4-yl]-piperazine-1-carboxylic acid (6-cyclobutoxy-pyridin-3-yl)-amide], for which the IC50 was 3.5 µM.

Compound `CO/N=C/c1c(N)ncnc1N1CCN(C(=O)Nc2ccc(N3CCCC3)cc2)CC1` [Example 18, 4-[6-Amino-5-(methoxyimino-methyl)-pyrimidin-4-yl]-piperazine-1-carboxylic acid (4-pyrrolidin-1-yl-phenyl)-amide] showed an IC50 of 2.6 µM.

`CO/N=C/c1c(N)ncnc1N1CCN(C(=O)Nc2ccc(OC(C)C)cc2)CC1` [Example 1, 4-[6-Amino-5-(methoxyimino-methyl)-pyrimidin-4-yl]-piperazine-1-carboxylic acid (4-isopropoxy-phenyl)-amide] showed an IC50 of 0.8 µM.

With `CCO/N=C/c1c(N)ncnc1N1CCN(C(=O)Nc2ccc(OC3CCC3)nc2)CC1` [Example 12, 4-[6-Amino-5-(ethoxyimino-methyl)-pyrimidin-4-yl]-piperazine-1-carboxylic acid (6-cyclobutoxy-pyridin-3-yl)-amide], it took 1.6 µM to reach half-maximal inhibition (IC50).

The compound `CC(C)Oc1ccc(NC(=O)N2CCN(c3ncnc(N)c3/C=N/OCCCO)CC2)cc1` [Example 3, 4-{6-Amino-5-[(3-hydroxy-propoxyimino)-methyl]-pyrimidin-4-yl}-piperazine-1-carboxylic acid (4-isopropoxy-phenyl)-amide] registered an IC50 of 1.3 µM.

In turn, `CO/N=C/c1c(N)ncnc1N1CCN(C(=O)Nc2ccc(C3CCCCC3)cc2)CC1` [Example 19, 4-[6-Amino-5-(methoxyimino-methyl)-pyrimidin-4-yl]-piperazine-1-carboxylic acid (4-cyclohexyl-phenyl)-amide] showed an IC50 of 1.68 µM.

As to `CO/N=C/c1c(N)ncnc1N1CCN(C(=O)Nc2ccc(N3CCOCC3)cc2)CC1` [Example 5, 4-[6-Amino-5-(methoxyimino-methyl)-pyrimidin-4-yl]-piperazine-1-carboxylic acid (4-morpholin-4-yl-phenyl)-amide], the IC50 is 8.4 µM.

Regarding `CO/N=C/c1c(N)ncnc1N1CCN(C(=O)Nc2ccc(Cl)cc2)CC1` [Example 20, 4-[6-Amino-5-(methoxyimino-methyl)-pyrimidin-4-yl]-piperazine-1-carboxylic acid (4-chloro-phenyl)-amide], half-maximal inhibition (IC50) required 15.6 µM. Against the preceding compound, the IC50 is about 1.9-fold higher.

Compound `CCO/N=C/c1c(N)ncnc1N1CCN(C(=O)Nc2ccc(N3CCOCC3)cc2)CC1` [Example 15, 4-[6-Amino-5-(ethoxyimino-methyl)-pyrimidin-4-yl]-piperazine-1-carboxylic acid (4-morpholin-4-yl-phenyl)-amide] gave an IC50 of 7.76 µM. Compared with the last compound, the IC50 is about 2-fold lower.

`CO/N=C/c1c(N)ncnc1N1CCN(C(=O)Nc2ccc(C(C)C)cc2)CC1` [Example 8, 4-[6-Amino-5-(methoxyimino-methyl)-pyrimidin-4-yl]-piperazine-1-carboxylic acid (4-isopropyl-phenyl)-amide] registered an IC50 of 1.1 µM.

In the case of `CCO/N=C/c1c(N)ncnc1N1CCN(C(=O)Nc2ccc(OC(C)C)cc2)CC1` [Example 9, 4-[6-Amino-5-(ethoxyimino-methyl)-pyrimidin-4-yl]-piperazine-1-carboxylic acid (4-isopropoxy-phenyl)-amide (anti-configuration for —C═N—O—)], the midpoint of inhibition, the IC50, lay at 0.6 µM.

Turning to `CCO/N=C\c1c(N)ncnc1N1CCN(C(=O)Cc2ccc(C(C)C)cc2)CC1` [Example 14, 4-Amino-6-{4-[2-(4-isopropyl-phenyl)-acetyl]-piperazin-1-yl}-pyrimidine-5-carbaldehyde O-ethyl-oxime (syn-configuration for —C═N—O—)], the IC50 amounted to 1.4 µM.

Compound `CO/N=C/c1c(N)ncnc1N1CCN(C(=O)Cc2ccc(C(C)C)cc2)CC1` [Example 7, 4-Amino-6-{4-[2-(4-isopropyl-phenyl)-acetyl]-piperazin-1-yl}-pyrimidine-5-carbaldehyde O-methyl-oxime] gave an IC50 of 0.5 µM.

In the case of `CO/N=C/c1c(N)ncnc1N1CCN(C(=O)Nc2ccc(N3CCCCC3)cc2)CC1` [Example 4, 4-[6-Amino-5-(methoxyimino-methyl)-pyrimidin-4-yl]-piperazine-1-carboxylic acid (4-piperidin-1-yl-phenyl)-amide], the IC50 was 4 µM. Against the preceding compound, the IC50 is about 8-fold higher.

In the case of `CCO/N=C/c1c(N)ncnc1N1CCN(C(=O)Cc2ccc(C(C)C)cc2)CC1` [Example 13, 4-Amino-6-{4-[2-(4-isopropyl-phenyl)-acetyl]-piperazin-1-yl}-pyrimidine-5-carbaldehyde O-ethyl-oxime (anti-configuration for —C═N—O—)], half-maximal inhibition (IC50) required 2.2 µM. Against the preceding compound, the IC50 is about 1.8-fold lower.
